Data published in patent US20070161623A1, “Urea derivatives” (MERCK PATENT GMBH, priority 2004, published 2007).

Molecular target: FXa (Homo sapiens, UniProt P00742)
Experiment: Factor Xa inhibition (FXa-IC50)
Type: biochemical
Text: The inhibition of factor Xa by the compounds according to the invention and the measurement of the anticoagulant and antithrombotic activity can be determined by conventional in-vitro or in-vivo methods. A suitable method is described, for example, by J. Hauptmann et al. in Thrombosis and Haemostasis 1990, 63, 220-223.
The inhibition of factor Xa can be measured, for example by the method of T. Hara et al. in Thromb. Haemostas. 1994, 71, 314-319.

FXa, sequence (P00742 235-488 limits assumed): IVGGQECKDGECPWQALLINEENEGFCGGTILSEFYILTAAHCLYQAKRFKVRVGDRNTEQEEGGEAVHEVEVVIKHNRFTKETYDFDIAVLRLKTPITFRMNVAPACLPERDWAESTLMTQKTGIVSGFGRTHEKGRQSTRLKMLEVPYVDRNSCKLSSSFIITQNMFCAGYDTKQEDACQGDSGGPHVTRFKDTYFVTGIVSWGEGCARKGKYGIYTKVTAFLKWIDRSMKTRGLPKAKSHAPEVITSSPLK
FXa, sequence (P00742 41-179 limits assumed): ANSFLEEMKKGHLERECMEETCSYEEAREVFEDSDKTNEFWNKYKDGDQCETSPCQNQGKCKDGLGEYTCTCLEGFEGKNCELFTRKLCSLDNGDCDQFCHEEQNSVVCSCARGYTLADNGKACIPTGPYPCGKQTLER

Cc1cc(NC(=O)Nc2cc(O)ccc2NC(=O)Nc2ccc(Cl)cc2)ccc1N1CCOCC1=O [Compound A1, 1-(4-chlorophenyl)-3-(4-hydroxy-2-{3-[3-methyl-4-(3-oxo-morpholin-4-yl)phenyl]ureido}phenyl)urea]
IC50: 12 nM

Cc1cc(NC(=O)Nc2ccncc2NC(=O)Nc2ccc(Cl)cc2)ccc1N1CCOCC1=O [Compound B0, 1-(4-Chlorophenyl)-3-(4-{3-[3-methyl-4-(3-oxomorpholin-4-yl)-phenyl]ureido}pyridin-3-yl)urea]
IC50: 420 nM
